One may read the pIC50 as the negative decadic logarithm of the IC50, by convention in mol/L. A lower pIC50 goes with a high IC50.

The source of these data is patent US12331035B2, “Bicyclic compound and use thereof” (SK BIOPHARMACEUTICALS CO., LTD., priority 2019, dated 2025).

pIC50: −log10 of the molar value.

For this experiment, the target named is T1, PRMT5-MEP50 enzyme complex (Homo sapiens, UniProt O14744).
T1 construct: purchased BPS Bioscience (USA) 51045
T1 sequence (O14744 2-637 limits assumed): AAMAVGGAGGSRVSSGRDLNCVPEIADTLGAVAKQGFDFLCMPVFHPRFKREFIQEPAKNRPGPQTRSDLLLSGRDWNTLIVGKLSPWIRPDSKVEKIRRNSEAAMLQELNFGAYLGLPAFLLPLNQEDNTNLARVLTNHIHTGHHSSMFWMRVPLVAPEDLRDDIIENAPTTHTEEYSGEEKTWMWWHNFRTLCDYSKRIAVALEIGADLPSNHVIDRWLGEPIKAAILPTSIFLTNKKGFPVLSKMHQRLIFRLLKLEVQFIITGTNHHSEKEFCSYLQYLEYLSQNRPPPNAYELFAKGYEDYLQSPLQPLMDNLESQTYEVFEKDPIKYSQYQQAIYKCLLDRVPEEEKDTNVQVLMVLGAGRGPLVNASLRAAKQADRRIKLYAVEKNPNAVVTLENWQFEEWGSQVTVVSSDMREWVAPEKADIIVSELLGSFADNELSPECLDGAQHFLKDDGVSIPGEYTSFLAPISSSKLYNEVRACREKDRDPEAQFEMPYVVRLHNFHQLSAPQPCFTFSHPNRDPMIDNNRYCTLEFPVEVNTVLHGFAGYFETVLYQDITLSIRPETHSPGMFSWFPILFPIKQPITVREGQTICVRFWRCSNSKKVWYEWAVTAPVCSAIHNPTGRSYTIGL
T1 sequence (Q9BQA1 2-342 partner limits assumed): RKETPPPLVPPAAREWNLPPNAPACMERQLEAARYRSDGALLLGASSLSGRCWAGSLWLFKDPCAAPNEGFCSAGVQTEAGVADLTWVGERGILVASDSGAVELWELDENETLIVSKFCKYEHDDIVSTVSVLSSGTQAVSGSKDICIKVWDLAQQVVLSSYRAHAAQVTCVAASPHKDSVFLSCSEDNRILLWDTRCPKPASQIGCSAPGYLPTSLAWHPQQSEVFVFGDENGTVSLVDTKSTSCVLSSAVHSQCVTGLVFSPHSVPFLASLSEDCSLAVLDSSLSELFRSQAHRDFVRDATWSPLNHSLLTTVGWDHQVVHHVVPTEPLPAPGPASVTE
Briefly: In vitro PRMT5 enzyme activity assay (methylation of histone H4 arginine H4R3, ELISA absorbance at 450 nm). Format: biochemical. The settings on record: S-adenosylmethionine, histone H4 peptide, 2 hours at room temperature, 8 points 10 μM to 0.128 nM. The method, then: Method for Measuring Enzyme Activity
In vitro assay: PRMT5-MEP50 enzyme complex, cofactor S-adenosylmethionine (SAM) and histone H4 peptide were reacted in vitro, and methylation of arginine (H4R3) —which is the third amino acid of histone H4—was measured in order to measure the enzyme activity of PRMT5.
Reagents: PRMT5-MEP50 enzyme complex (Catalog No. 51045), blocking buffer (52100-B), histone methyltransferase reaction buffer 2 (4×HMT assay buffer 2, Catalog No. 52170), and primary antibody (primary antibody 4-3, Catalog No. 52150) were purchased from BPS Bioscience (USA). The histone H4 peptide (1-20 amino acids) was custom made by Komabiotech (Korea) and used. S-adenosylmethionine was purchased from NEB (New England Biolabs, USA, Catalog No. B9003S). Plates for coating histone H4 peptide, washing buffer and color development reagent were purchased from the following vendors: Plate (Immobilizer™-Amino Plate, NUNC, Denmark, Catalog No. 436023), carbonate-bicarbonate buffer (Sigma-Aldrich, USA, Catalog No. C3041), washing buffer (10×TBST, Biosesang, Korea, Catalog No. T2005), TMB ELISA substrate (Abcam, UK, Catalog No. ab210902), horseradish peroxidase (HRP)-conjugated antibody (Abcam, UK, Catalog No. ab6721).
Experimental procedure: The histone H4 peptide was diluted with carbonate-bicarbonate buffer and prepared to 100 μg/mL, and then dispensed onto the plate per 100 μL and reacted at 37° C. for 1 hour. PRMT5-MEP50 enzyme complex and S-adenosylmethionine were diluted with histone methyltransferase reaction buffer to prepare 5 μg/mL and 2 μM, respectively, and then 20 μL of PRMT5-MEP50 enzyme complex and 25 μL of S-adenosylmethionine were dispensed onto the plate prepared above. 5 μL of the compound diluted with 10% dimethyl sulfoxide solution was added thereto and reacted at room temperature for 2 hours (final volume=50 μL). The concentration of the compound was diluted 1:5 from 10 μM until the lowest concentration of 0.128 nM, and 8 points were used for the test. After preparing the primary antibody by diluting 1:2000 with blocking buffer, 100 μL was added to the plate and reacted at room temperature for 1 hour. After preparing horseradish peroxidase-conjugated antibody by diluting 1:10,000 with blocking buffer, 100 μL was added to the plate and reacted at room temperature for 1 hour. 100 μL of TMB substrate was added and reacted for 3 minutes at room temperature, and 100 μL of 1 N sulfuric acid was then added to terminate the reaction. Then, the absorbance at 450 nm was measured to calculate the IC50 value of the compound. (+++: 1 to 100 nM, ++: greater than 100 to 1,000 nM, +: greater than 1,000 to 10,000 nM)
A general note: An ELISA detects its analyte on a solid surface through an enzyme-linked reagent.
Regarding `O=C1c2ccc(Br)cc2CCN1C[C@H](O)CN1CCc2ccccc2C1` [Example 1, 6-bromo-2-[(2R)-3-(3,4-dihydro-1H-isoquinolin-2-yl)-2-hydroxy-propyl]-3,4-dihydroisoquinolin-1-one], the pIC50 was 7.00 to 9.00.
Under `O=C1c2ccc(N3CCCC3)cc2CCN1C[C@H](O)CN1CCc2ccccc2C1` [Example 2, 2-[(2R)-3-(3,4-dihydro-1H-isoquinolin-2-yl)-2-hydroxy-propyl]-6-pyrrolidin-1-yl-3,4-dihydroisoquinolin-1-one] stands 6.00 to 7.00; under `O=C1c2ccc(NC3CCOCC3)cc2CCN1C[C@H](O)CN1CCc2ccccc2C1` [Example 5, 2-[(2R)-3-(3,4-dihydro-1H-isoquinolin-2-yl)-2-hydroxy-propyl]-6-(tetrahydropyran-4-ylamino)-3,4-dihydroisoquinolin-1-one], 7.00 to 9.00; under `O=C1c2ccc(NCC3CCCCC3)cc2CCN1C[C@H](O)CN1CCc2ccccc2C1` [Example 6, 6-(cyclohexylmethylamino)-2-[(2R)-3-(3,4-dihydro-1H-isoquinolin-2-yl)-2-hydroxy-propyl]-3,4-dihydroisoquinolin-1-one], 7.00 to 9.00.
The figure for `O=C1c2ccc(NCc3ccccc3)cc2CCN1C[C@H](O)CN1CCc2ccccc2C1` [Example 7, 6-(benzylamino)-2-[(2R)-3-(3,4-dihydro-1H-isoquinolin-2-yl)-2-hydroxy-propyl]-3,4-dihydroisoquinolin-1-one] is 7.00 to 9.00; for `O=C1c2ccc(-c3ccncc3)cc2CCN1C[C@H](O)CN1CCc2ccccc2C1` [Example 8, 2-[(2R)-3-(3,4-dihydro-1H-isoquinolin-2-yl)-2-hydroxy-propyl]-6-(4-pyridyl)-3,4-dihydroisoquinolin-1-one] it is 7.00 to 9.00.
The figure for `O=C1c2ccc(-c3cccnc3)cc2CCN1C[C@H](O)CN1CCc2ccccc2C1` [Example 9, 2-[(2R)-3-(3,4-dihydro-1H-isoquinolin-2-yl)-2-hydroxy-propyl]-6-(3-pyridyl)-3,4-dihydroisoquinolin-1-one] is 7.00 to 9.00.
Turning to `O=C1c2ccc(NCc3ccncc3)cc2CCN1C[C@H](O)CN1CCc2ccccc2C1` [Example 10, 2-[(2R)-3-(3,4-dihydro-1H-isoquinolin-2-yl)-2-hydroxy-propyl]-6-(4-pyridylmethylamino)-3,4-dihydroisoquinolin-1-one], the negative-log IC50 (pIC50) was 7.00 to 9.00.
The figure for `CN(c1ccc2c(c1)CCN(C[C@H](O)CN1CCc3ccccc3C1)C2=O)C1CCCCC1` [Example 11, 6-[cyclohexyl(methyl)amino]-2-[(2R)-3-(3,4-dihydro-1H-isoquinolin-2-yl)-2-hydroxy-propyl]-3,4-dihydroisoquinolin-1-one] is 7.00 to 9.00; for `O=C1c2ccc(-c3ccnc(F)c3)cc2CCN1C[C@H](O)CN1CCc2ccccc2C1` [Example 12, 2-[(2R)-3-(3,4-dihydro-1H-isoquinolin-2-yl)-2-hydroxy-propyl]-6-(2-fluoro-4-pyridyl)-3,4-dihydroisoquinolin-1-one] it is 7.00 to 9.00.
The figure for `CCCc1ccc2c(c1)CCN(C[C@H](O)CN1CCc3ccccc3C1)C2=O` [Example 13, 2-[(2R)-3-(3,4-dihydro-1H-isoquinolin-2-yl)-2-hydroxy-propyl]-6-propyl-3,4-dihydroisoquinolin-1-one] is 7.00 to 9.00; for `O=C1c2ccc(-c3ccc(F)nc3)cc2CCN1C[C@H](O)CN1CCc2ccccc2C1` [Example 15, 2-[(2R)-3-(3,4-dihydro-1H-isoquinolin-2-yl)-2-hydroxy-propyl]-6-(6-fluoro-3-pyridyl)-3,4-dihydroisoquinolin-1-one] it is 7.00 to 9.00.
The figure for `C[C@@H]1CN(c2ccc3c(c2)CCN(C[C@H](O)CN2CCc4ccccc4C2)C3=O)CCO1` [Example 16, 2-[(2R)-3-(3,4-dihydro-1H-isoquinolin-2-yl)-2-hydroxy-propyl]-6-[(2R)-2-methylmorpholin-4-yl]-3,4-dihydroisoquinolin-1-one] is 7.00 to 9.00.
`CN1CCN(c2ccc3c(c2)CCN(C[C@H](O)CN2CCc4ccccc4C2)C3=O)CC1` [Example 17, 2-[(2R)-3-(3,4-dihydro-1H-isoquinolin-2-yl)-2-hydroxy-propyl]-6-(4-methylpiperazin-1-yl)-3,4-dihydroisoquinolin-1-one] showed a pIC50 of 7.00 to 9.00.
The figure for `O=C1c2ccc(N3CCCC3=O)cc2CCN1C[C@H](O)CN1CCc2ccccc2C1` [Example 18, 2-[(2R)-3-(3,4-dihydro-1H-isoquinolin-2-yl)-2-hydroxy-propyl]-6-(2-oxopyrrolidin-1-yl)-3,4-dihydroisoquinolin-1-one] is 5.00 to 6.00; for `CC(C)(C)C(=O)Nc1ccc2c(c1)CCN(C[C@H](O)CN1CCc3ccccc3C1)C2=O` [Example 19, N-[2-[(2R)-3-(3,4-dihydro-1H-isoquinolin-2-yl)-2-hydroxy-propyl]-1-oxo-3,4-dihydroisoquinolin-6-yl]-2,2-dimethylpropanamide] it is 6.00 to 7.00.
For `O=C1c2ccc(N3CCC3=O)cc2CCN1C[C@H](O)CN1CCc2ccccc2C1` [Example 20, 2-[(2R)-3-(3,4-dihydro-1H-isoquinolin-2-yl)-2-hydroxy-propyl]-6-(2-oxoazetidin-1-yl)-3,4-dihydroisoquinolin-1-one], the pIC50 was 6.00 to 7.00.
The figure for `O=C1c2ccc(N3CCCCC3=O)cc2CCN1C[C@H](O)CN1CCc2ccccc2C1` [Example 21, 2-[(2R)-3-(3,4-dihydro-1H-isoquinolin-2-yl)-2-hydroxy-propyl]-6-(2-oxo-1-piperidyl)-3,4-dihydroisoquinolin-1-one] is 6.00 to 7.00; for `O=C1c2ccc(NCc3cccnc3)cc2CCN1C[C@H](O)CN1CCc2ccccc2C1` [Example 22, 2-[(2R)-3-(3,4-dihydro-1H-isoquinolin-2-yl)-2-hydroxy-propyl]-6-(3-pyridylmethylamino)-3,4-dihydroisoquinolin-1-one] it is 5.00 to 6.00.
`O=C1c2ccc(NCC3CCOCC3)cc2CCN1C[C@H](O)CN1CCc2ccccc2C1` [Example 23, 2-[(2R)-3-(3,4-dihydro-1H-isoquinolin-2-yl)-2-hydroxy-propyl]-6-(tetrahydropyran-4-ylmethylamino)-3,4-dihydroisoquinolin-1-one] showed a pIC50 of 7.00 to 9.00.
Under `CC(=O)N1CCC(CNc2ccc3c(c2)CCN(C[C@H](O)CN2CCc4ccccc4C2)C3=O)CC1` [Example 24, 6-[(1-acetyl-4-piperidyl)methylamino]-2-[(2R)-3-(3,4-dihydro-1H-isoquinolin-2-yl)-2-hydroxy-propyl]-3,4-dihydroisoquinolin-1-one] stands 7.00 to 9.00; under `CC(C)(O)CNc1ccc2c(c1)CCN(C[C@H](O)CN1CCc3ccccc3C1)C2=O` [Example 25, 2-[(2R)-3-(3,4-dihydro-1H-isoquinolin-2-yl)-2-hydroxy-propyl]-6-[(2-hydroxy-2-methyl-propyl)amino]-3,4-dihydroisoquinolin-1-one], 7.00 to 9.00.
The figure for `O=C(Nc1ccc2c(c1)CCN(C[C@H](O)CN1CCc3ccccc3C1)C2=O)c1cccnc1` [Example 26, N-[2-[(2R)-3-(3,4-dihydro-1H-isoquinolin-2-yl)-2-hydroxy-propyl]-1-oxo-3,4-dihydroisoquinolin-6-yl]pyridine-3-carboxamide] is 7.00 to 9.00; for `O=C(Nc1ccc2c(c1)CCN(C[C@H](O)CN1CCc3ccccc3C1)C2=O)c1ccncc1` [Example 27, N-[2-[(2R)-3-(3,4-dihydro-1H-isoquinolin-2-yl)-2-hydroxy-propyl]-1-oxo-3,4-dihydroisoquinolin-6-yl]pyridine-4-carboxamide] it is 6.00 to 7.00.
The figure for `CC1CC(C)CN(c2ccc3c(c2)CCN(C[C@H](O)CN2CCc4ccccc4C2)C3=O)C1` (stereo partly drawn) [Example 28, 2-[(2R)-3-(3,4-dihydro-1H-isoquinolin-2-yl)-2-hydroxy-propyl]-6-(3,5-dimethyl-1-piperidyl)-3,4-dihydroisoquinolin-1-one] is 6.00 to 7.00.
Compound `CC1CN(c2ccc3c(c2)CCN(C[C@H](O)CN2CCc4ccccc4C2)C3=O)CC(C)N1` (stereo partly drawn) [Example 29, 2-[(2R)-3-(3,4-dihydro-1H-isoquinolin-2-yl)-2-hydroxy-propyl]-6-(3,5-dimethylpiperazin-1-yl)-3,4-dihydroisoquinolin-1-one] had a pIC50 of 7.00 to 9.00.
